From patent publication US9156852B2, “Thieno[3,2-D]pyrimidine derivatives having inhibitory activity for protein kinases” (HANMI PHARM. CO., LTD, priority 2011, dated 2015)

Experiments:
[1] = biological target: FMS (Homo sapiens (Human), UniProt P07333); assay: FMS kinase activity, Kinase Screening and Profiling Service (Invitrogen); format: biochemical
Description: (§1) As such, the compounds prepared in Examples were tested for inhibitory activity against FMS, DDR1 and DDR2 kinases using Kinase Screening and Profiling Service (Invitrogen, U.S.).

[2] = biological target: DDR1 (Homo sapiens (Human), UniProt Q08345); assay: DDR1 kinase activity, Kinase Screening and Profiling Service (Invitrogen); format: biochemical
Description: as §1

[3] = biological target: DDR2 (Homo sapiens (Human), UniProt Q16832); assay: DDR2 kinase activity, Kinase Screening and Profiling Service (Invitrogen); format: biochemical
Description: as §1

[4] = test system: HepG2 cells (N-RAS mutant hepatoma carcinoma cell); assay: Inhibition on cell growth of N-RAS mutant cell HepG2 (SRB); format: cell-based; conditions: Homo sapiens, 72 hours, SRB staining, described as GI50 in the method
Description: N-RAS mutant cells HepG2 cells (HCC) cell lines (ATCC # HB-8065™), were obtained from ATCC (American Type Culture Collection: Rockville, Md.). HepG2 cell lines were incubated in a MEM medium supplemented with 10% FBS and 1% penicillin/streptomycin (Gibco BRL) under 37° C., 5% CO2 and 95% air. The cell lines were transferred into 96-well plates at a density of 5,000 cells/well, and cultured for 18 hours or more. The cell lines were treated with […]˜0.1 nM of test compounds, and cultured for 72 hours.
(§2) To evaluate cell viabilities, HepG2 cell lines were fixed with 10% TCA (trichloroacetic acid), stained with SRB (sulfohodamine B), and an absorbance was measured at 540 nm. Then, GI50, i.e., the concentration of drug to cause 50% reduction in proliferation of cancer cells, were calculated therefrom. The growth rates of cancer cells were calculated by Equation 1 or 2. [(Ti−Tz)/(C−Tz)]×100 (for Ti>=Tz) [Equation 1] [(Ti−Tz/Tz)×100 (for Ti<Tz) [Equation 2]
(§3) In Equations 1 and 2, ‘Tz’ refers to a density of untreated cells, which is an absorbance in 0% cell growth groups. ‘C’ refers to a density of cells cultured by adding only medium, and ‘Ti’ refers to a density of cells treated with test compounds.
GI50 value is the concentration of test compound when the value of Equation 1 is 50, which indicates the concentration of test compound needed to reduce the growth of cancer cells to 50%. On each measurement, test compounds were compared with a control.

[5] = test system: SK-Mel-2 cells (N-RAS mutant melanoma); assay: Inhibition on cell growth of N-RAS mutant cell SK-Mel-2 (SRB); format: cell-based; conditions: Homo sapiens, 72 hours, SRB staining, described as GI50 in the method
Description: N-RAS mutant cells, SK-Mel-2 cell lines (ATCC #HTB-68™), were obtained from ATCC (American Type Culture Collection: Rockville, Md.). SK-Mel-2 cell lines were incubated in a MEM medium supplemented with 10% FBS and 1% penicillin/streptomycin (Gibco BRL) under 37° C., 5% CO2 and 95% air. The cell lines were transferred into 96-well plates at a density of 5,000 cells/well, and cultured for 18 hours or more. The cells were treated with […]˜0.1 nM of test compounds, and cultured for 72 hours.
as §2, with “SK-Mel-2” for “HepG2”
as §3
GI50 value is the concentration of a test compound when the value of Equation 1 is 50, which indicates the concentration of test compound needed to reduce the growth of cancer cells to 50%. On each measurement, test compounds were compared with a control.

[6] = biological target: B-RAF normal type (Homo sapiens (Human), UniProt P15056); assay: RAF kinase activity, Kinase Profiling Service (Invitrogen); format: biochemical
Description: (§4) The levels of enzymatic inhibition of the compounds were calculated as percent inhibition at various concentrations. Based on percent inhibition, dose-response curves were plotted using GraphPad Prism software.

[7] = biological target: B-RAF^V600E (Homo sapiens (Human), UniProt P15056, V600E); assay: as above; format: biochemical; conditions: B-RAF V600E mutant; read-out: B-RAFv^600E (IC50)
Description: as §4

[8] = biological target: RAF1 Y340D Y341D (C-RAF) (Homo sapiens (Human), UniProt P04049, Y340D/Y341D); assay: as above; format: biochemical
Description: as §4

Sequence of B-RAF normal type (P15056 whole entry): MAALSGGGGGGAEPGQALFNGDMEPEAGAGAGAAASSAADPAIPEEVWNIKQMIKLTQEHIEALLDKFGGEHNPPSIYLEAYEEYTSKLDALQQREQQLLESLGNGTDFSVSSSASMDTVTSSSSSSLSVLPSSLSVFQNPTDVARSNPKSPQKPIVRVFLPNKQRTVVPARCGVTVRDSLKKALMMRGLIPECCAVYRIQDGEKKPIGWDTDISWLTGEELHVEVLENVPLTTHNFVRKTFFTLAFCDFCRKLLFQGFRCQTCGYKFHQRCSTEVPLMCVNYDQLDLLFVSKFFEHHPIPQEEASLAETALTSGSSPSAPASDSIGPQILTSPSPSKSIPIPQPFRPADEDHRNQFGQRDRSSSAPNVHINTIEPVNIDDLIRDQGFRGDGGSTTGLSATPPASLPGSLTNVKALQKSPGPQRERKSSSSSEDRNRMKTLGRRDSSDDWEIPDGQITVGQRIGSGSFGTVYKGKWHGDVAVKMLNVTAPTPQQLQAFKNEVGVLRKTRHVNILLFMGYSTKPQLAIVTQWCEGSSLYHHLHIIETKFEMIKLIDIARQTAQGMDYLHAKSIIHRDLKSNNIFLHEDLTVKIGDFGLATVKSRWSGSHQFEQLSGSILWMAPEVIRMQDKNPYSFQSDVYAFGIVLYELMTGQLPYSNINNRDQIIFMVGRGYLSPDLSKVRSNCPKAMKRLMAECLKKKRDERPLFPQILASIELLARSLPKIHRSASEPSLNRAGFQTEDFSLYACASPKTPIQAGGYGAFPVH
Sequence of B-RAF^V600E (P15056 whole entry V600E): as the sequence (P15056 whole entry) above, with V600E counted along it
Sequence of DDR1 (Q08345 19-913): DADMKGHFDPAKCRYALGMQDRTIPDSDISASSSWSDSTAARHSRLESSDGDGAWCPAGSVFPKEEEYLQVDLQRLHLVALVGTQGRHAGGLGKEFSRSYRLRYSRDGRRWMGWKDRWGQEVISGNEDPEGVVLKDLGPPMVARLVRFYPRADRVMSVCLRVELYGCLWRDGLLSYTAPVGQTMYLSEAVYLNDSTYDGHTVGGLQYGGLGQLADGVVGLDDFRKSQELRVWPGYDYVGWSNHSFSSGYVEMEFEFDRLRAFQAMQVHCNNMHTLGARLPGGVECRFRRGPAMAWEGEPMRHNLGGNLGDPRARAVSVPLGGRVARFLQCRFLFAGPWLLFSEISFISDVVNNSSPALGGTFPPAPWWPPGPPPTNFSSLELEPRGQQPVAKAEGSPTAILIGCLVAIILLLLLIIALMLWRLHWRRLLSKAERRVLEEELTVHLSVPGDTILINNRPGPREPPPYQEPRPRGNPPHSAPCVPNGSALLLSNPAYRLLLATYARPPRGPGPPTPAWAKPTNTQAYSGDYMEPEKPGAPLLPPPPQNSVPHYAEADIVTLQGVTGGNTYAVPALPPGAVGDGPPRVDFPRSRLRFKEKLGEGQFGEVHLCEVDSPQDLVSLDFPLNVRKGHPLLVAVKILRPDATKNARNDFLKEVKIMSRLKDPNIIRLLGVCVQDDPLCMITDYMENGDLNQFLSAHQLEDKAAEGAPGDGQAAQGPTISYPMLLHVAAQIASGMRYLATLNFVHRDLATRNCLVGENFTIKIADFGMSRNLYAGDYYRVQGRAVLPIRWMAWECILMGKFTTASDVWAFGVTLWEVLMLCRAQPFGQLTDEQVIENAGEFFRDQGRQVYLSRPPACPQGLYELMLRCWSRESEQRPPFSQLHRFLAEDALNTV
Sequence of DDR2 (Q16832 22-855): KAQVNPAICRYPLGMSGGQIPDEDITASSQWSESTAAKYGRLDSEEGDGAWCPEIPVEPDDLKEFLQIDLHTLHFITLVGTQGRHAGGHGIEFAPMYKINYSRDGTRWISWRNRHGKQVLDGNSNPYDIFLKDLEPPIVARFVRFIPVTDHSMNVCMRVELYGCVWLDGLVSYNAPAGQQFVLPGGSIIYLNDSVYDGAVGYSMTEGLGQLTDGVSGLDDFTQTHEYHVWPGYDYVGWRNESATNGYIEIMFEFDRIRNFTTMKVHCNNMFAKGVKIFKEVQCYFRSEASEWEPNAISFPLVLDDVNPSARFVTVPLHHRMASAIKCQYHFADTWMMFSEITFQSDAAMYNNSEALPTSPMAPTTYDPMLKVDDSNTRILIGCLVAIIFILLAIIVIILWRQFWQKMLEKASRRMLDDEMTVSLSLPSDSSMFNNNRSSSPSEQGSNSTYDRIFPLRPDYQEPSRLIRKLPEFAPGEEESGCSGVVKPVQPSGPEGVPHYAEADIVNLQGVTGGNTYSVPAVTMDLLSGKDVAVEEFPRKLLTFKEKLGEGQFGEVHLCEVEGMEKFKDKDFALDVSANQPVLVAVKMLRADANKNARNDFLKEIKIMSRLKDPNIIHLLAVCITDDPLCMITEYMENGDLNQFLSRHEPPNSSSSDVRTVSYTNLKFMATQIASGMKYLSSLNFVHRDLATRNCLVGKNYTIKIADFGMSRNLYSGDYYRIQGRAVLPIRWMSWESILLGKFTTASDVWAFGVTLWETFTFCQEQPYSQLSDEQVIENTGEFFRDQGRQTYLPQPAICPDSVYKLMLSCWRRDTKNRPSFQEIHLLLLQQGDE
Sequence of RAF1 Y340D Y341D (C-RAF) (P04049 whole entry Y340D/Y341D): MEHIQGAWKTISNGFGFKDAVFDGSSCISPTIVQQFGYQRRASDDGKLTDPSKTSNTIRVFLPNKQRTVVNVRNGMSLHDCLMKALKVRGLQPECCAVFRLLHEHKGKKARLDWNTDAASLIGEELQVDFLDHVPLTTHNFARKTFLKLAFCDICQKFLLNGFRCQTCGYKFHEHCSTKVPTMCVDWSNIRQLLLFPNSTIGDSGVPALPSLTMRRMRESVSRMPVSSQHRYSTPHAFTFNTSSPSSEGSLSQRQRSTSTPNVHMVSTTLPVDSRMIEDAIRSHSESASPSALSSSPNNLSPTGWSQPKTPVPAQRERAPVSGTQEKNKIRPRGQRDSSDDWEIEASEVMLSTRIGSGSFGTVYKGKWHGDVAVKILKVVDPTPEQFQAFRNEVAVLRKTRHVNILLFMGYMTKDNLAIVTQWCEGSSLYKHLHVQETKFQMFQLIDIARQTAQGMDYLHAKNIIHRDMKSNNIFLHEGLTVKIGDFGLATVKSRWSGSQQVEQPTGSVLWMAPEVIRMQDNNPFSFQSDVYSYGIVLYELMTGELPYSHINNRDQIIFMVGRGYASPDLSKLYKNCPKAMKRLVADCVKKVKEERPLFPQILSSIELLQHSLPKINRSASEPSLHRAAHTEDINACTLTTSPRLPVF
Sequence of FMS (P07333 20-972): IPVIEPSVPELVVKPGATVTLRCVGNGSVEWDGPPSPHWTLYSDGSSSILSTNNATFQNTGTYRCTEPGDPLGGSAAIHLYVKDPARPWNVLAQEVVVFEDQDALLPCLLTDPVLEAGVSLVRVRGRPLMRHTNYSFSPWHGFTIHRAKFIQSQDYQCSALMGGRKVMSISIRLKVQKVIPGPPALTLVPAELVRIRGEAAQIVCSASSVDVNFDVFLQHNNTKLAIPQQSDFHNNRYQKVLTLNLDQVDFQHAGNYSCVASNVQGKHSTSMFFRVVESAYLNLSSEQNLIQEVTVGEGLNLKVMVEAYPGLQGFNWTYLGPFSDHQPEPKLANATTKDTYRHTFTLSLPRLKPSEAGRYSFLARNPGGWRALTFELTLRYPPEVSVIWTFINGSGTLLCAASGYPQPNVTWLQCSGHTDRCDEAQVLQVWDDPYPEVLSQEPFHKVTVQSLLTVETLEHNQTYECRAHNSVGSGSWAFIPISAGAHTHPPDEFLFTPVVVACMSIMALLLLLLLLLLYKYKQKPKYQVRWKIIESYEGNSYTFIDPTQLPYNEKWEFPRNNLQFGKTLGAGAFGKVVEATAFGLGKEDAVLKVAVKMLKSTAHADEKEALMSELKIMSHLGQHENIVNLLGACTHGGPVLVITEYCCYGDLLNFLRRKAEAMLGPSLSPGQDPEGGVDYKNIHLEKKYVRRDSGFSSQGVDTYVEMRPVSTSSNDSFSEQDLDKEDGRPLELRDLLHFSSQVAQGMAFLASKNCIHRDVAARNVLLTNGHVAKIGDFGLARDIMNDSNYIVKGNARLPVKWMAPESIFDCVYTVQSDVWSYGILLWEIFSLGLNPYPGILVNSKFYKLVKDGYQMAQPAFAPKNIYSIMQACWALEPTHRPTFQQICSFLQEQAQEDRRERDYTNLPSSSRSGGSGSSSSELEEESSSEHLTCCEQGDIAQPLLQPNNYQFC

IC50 [1] [nM]	IC50 [2] [nM]	IC50 [3] [nM]	IC50 [4] [nM]	IC50 [5] [nM]	IC50 [6] [nM]	IC50 [7] [nM]	IC50 [8] [nM]	SMILES
> 1000	> 1000	> 1000	> 1000	> 1000				CCCS(=O)(=O)Nc1ccc(F)c(C(=O)c2c[nH]c3ncc(-c4ccc(Cl)cc4)cc23)c1F [Control, Vemurafenib, reference compound]
1	2	5	27	56	121	22	23	Cc1ccc2c(Nc3ccc(Cl)cc3)nccc2c1NC(=O)c1csc2c(N)ncnc12 [Example 1, 4-amino-N-(1-((4-chlorophenyl)amino)-6-methylisoquinolin-5-yl)thieno[3,2-d]pyrimidine-7-carboxamide]
			24	52	15	32	5	COc1ccc(Nc2nccc3c(NC(=O)c4csc5c(N)ncnc45)c(C)ccc23)cc1 [Example 16, 4-amino-N-(1-((4-methoxyphenyl)amino)-6-methylisoquinolin-5-yl)thieno[3,2-d]pyrimidine-7-carboxamide]
			41	97				Cc1ccc2c(Nc3cccc(Cl)c3)nccc2c1NC(=O)c1csc2c(N)ncnc12 [Example 38, 4-amino-N-(1-((3-chlorophenyl)amino)-6-methylisoquinolin-5-yl)thieno[3,2-d]pyrimidine-7-carboxamide]
			44	163	128	26	32	Cc1ccc2c(Nc3ccc(OC(F)F)cc3)nccc2c1NC(=O)c1csc2c(N)ncnc12 [Example 50, 4-amino-N-(1-((4-(difluoromethoxy)phenyl)amino)-6-methylisoquinolin-5-yl)thieno[3,2-d]pyrimidine-7-carboxamide]
			47	236	42	7	6	Cc1ccc2c(Nc3ccc(Cl)c(CN(C)C)c3)nccc2c1NC(=O)c1csc2c(N)ncnc12 [Example 59, 4-amino-N-(1-((4-chloro-3-((dimethylamino)methyl)phenyl)amino)-6-methylisoquinolin-5-yl)thieno[3,2-d]pyrimidine-7-carboxamide]
4	5	10	30	60	12	5	7	CC(=O)c1ccc(Nc2nccc3c(NC(=O)c4csc5c(N)ncnc45)c(C)ccc23)cc1 [Example 83, N-(1-((4-acetylphenyl)amino)-6-methylisoquinolin-5-yl)-4-aminothieno[3,2-d]pyrimidine-7-carboxamide]
50	71	181	90	210	179	31	15	Cc1ccc2c(Nc3ccc(F)c(Cl)c3)nccc2c1NC(=O)c1csc2c(N)ncnc12 [Example 105, 4-amino-N-(1-((3-chloro-4-fluorophenyl)amino)-6-methylisoquinolin-5-yl)thieno[3,2-d]pyrimidine-7-carboxamide]
10	23	44	38	76	56	7	5	Cc1ccc2c(Nc3cccc(Cl)c3F)nccc2c1NC(=O)c1csc2c(N)ncnc12 [Example 116, 4-amino-N-(1-((3-chloro-2-fluorophenyl)amino)-6-methylisoquinolin-5-yl)thieno[3,2-d]pyrimidine-7-carboxamide]
